Literature values in patent US20010056087A1, “Use of 5alpha-androst-1en-3,17-diol to increase the level of the anabolic/androgenic hormone 17beta-hydroxy-5alpha-androst-1-en-3-one in humans” (priority 2000, published 2001).

Conditions: One hundred mg given orally to men

SMILES: C[C@]12C=CC(=O)C[C@@H]1CC[C@@H]1[C@@H]2CC[C@]2(C)C(=O)CC[C@@H]12 [1-androstenedione, 5alpha-androst-1-en-3,17-dione]
- excretion of 17beta-hydroxy-5alpha-androst-1-en-3-one in the urine (in-vivo conversion): considerable excretion of 17beta-hydroxy-5alpha-androst-1-en-3-one in the urine
